Laboratory results published in ChEMBL document CHEMBL5291721, “A preclinical secondary pharmacology resource illuminates target-adverse drug reaction associations of marketed drugs” (Nat Commun, 2023).

Assays:
[1] = target: T1, 5-hydroxytryptamine receptor 1A (Homo sapiens, UniProt P08908)
T1 sequence (P08908 whole entry): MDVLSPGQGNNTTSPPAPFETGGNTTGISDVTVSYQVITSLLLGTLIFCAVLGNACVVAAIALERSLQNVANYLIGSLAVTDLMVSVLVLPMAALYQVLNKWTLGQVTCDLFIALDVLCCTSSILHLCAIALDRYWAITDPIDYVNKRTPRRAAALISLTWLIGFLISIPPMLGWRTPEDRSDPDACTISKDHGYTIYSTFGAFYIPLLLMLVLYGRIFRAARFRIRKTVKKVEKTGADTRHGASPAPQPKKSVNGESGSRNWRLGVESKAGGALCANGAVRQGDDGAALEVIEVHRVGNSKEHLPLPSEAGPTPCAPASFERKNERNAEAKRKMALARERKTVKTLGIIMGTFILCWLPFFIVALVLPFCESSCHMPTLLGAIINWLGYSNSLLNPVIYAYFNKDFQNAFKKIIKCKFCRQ

Progesterone receptor = target: T2, Progesterone receptor (Homo sapiens, UniProt P06401)
T2 sequence (P06401 whole entry): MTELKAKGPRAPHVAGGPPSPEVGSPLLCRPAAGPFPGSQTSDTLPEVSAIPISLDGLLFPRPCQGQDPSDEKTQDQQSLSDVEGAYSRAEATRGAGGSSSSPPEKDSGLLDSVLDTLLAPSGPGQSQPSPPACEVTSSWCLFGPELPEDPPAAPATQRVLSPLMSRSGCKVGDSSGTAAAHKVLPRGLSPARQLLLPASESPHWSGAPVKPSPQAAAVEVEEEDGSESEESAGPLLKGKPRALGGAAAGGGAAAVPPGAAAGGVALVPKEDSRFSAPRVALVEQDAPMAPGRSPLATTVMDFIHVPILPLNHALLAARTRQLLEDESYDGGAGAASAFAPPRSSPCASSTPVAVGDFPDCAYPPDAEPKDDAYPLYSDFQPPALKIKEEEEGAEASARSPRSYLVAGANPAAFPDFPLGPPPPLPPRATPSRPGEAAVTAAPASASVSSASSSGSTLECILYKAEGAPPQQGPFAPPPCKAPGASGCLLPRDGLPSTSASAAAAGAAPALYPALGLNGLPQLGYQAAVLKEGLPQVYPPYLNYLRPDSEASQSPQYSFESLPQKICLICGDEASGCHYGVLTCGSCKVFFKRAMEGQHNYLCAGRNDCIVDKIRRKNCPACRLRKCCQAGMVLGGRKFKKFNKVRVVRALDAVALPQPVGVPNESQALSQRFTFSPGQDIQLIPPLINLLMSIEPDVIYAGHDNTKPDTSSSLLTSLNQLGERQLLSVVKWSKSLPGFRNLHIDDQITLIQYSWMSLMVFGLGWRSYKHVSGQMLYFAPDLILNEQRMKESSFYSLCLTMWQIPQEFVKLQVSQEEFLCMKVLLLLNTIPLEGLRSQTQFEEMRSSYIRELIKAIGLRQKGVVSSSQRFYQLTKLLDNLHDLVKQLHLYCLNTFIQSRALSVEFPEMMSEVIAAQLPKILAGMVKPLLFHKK

D(1A) dopamine receptor = D(1A) dopamine receptor (Homo sapiens, UniProt P21728)
[2] = target: T3, Prostaglandin G/H synthase 1 (Homo sapiens, UniProt P23219); assay type: functional
Histamine H3 receptor = Histamine H3 receptor (Homo sapiens, UniProt Q9Y5N1)
[3] = target: T4, Alpha-1A adrenergic receptor (Homo sapiens, UniProt P35348); assay type: functional, cell-based
T4 sequence (P35348 whole entry): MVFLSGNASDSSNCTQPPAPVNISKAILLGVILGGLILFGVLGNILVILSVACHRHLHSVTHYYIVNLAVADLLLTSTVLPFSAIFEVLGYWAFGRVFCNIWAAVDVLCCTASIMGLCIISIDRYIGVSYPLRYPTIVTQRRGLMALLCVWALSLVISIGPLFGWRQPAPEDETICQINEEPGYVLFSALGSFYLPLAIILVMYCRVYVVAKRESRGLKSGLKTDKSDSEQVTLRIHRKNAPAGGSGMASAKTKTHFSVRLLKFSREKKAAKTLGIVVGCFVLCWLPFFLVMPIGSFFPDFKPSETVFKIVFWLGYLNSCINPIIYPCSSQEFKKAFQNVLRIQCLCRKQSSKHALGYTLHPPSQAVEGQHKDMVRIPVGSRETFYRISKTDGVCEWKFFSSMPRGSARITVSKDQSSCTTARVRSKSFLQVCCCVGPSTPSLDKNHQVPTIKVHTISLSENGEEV

[4] = target: T3, Prostaglandin G/H synthase 1; assay type: functional; remark: listed apart in the source
[5] = target: Sodium-dependent dopamine transporter (Homo sapiens, UniProt Q01959)
[6] = target: T5, Amine oxidase [flavin-containing] A (Homo sapiens, UniProt P21397); assay type: functional
T5 sequence (P21397 whole entry): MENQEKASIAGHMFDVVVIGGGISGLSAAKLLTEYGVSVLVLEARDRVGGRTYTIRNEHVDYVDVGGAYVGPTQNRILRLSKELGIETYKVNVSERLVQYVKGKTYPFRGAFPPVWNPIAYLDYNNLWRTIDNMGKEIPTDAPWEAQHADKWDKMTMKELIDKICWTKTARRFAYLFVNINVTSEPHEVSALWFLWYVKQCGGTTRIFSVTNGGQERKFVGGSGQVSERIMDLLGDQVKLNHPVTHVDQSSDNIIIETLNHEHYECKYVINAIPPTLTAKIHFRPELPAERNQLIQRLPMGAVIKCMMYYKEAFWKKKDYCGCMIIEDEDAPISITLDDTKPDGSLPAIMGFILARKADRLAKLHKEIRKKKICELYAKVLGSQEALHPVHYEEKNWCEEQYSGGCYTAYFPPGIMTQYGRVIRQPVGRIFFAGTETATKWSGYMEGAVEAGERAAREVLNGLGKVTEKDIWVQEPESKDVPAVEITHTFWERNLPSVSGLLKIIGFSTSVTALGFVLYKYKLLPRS

[7] = target: 5-hydroxytryptamine receptor 2B (Homo sapiens, UniProt P41595); assay type: functional, cell-based
Prothrombin = Prothrombin (Homo sapiens, UniProt P00734); assay type: functional
Note: assay procedure not described here.

Histamine H3 receptor, sequence (Q9Y5N1 whole entry): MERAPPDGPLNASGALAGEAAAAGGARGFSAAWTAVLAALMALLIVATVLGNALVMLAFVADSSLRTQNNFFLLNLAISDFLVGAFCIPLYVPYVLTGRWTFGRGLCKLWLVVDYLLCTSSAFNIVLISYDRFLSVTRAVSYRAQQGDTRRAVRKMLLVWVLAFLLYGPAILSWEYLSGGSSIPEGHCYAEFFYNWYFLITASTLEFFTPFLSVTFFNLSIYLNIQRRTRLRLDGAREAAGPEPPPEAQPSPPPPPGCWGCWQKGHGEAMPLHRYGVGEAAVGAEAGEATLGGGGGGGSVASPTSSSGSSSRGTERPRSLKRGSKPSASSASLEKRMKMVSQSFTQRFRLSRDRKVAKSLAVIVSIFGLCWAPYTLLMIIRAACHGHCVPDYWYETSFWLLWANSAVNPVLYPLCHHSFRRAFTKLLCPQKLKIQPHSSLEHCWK
D(1A) dopamine receptor, sequence (P21728 whole entry): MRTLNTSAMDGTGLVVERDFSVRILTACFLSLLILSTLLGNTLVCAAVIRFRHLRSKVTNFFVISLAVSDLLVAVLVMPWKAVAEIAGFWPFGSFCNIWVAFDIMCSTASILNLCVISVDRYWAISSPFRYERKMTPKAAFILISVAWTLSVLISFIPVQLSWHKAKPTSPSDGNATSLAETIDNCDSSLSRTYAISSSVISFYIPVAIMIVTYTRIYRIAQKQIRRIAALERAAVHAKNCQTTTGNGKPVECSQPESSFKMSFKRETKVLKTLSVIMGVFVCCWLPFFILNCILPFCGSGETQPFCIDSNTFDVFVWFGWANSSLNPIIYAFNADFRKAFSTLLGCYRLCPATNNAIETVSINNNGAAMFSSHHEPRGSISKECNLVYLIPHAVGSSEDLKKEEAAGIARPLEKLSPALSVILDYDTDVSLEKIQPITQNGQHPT
5-hydroxytryptamine receptor 2B, sequence (P41595 whole entry): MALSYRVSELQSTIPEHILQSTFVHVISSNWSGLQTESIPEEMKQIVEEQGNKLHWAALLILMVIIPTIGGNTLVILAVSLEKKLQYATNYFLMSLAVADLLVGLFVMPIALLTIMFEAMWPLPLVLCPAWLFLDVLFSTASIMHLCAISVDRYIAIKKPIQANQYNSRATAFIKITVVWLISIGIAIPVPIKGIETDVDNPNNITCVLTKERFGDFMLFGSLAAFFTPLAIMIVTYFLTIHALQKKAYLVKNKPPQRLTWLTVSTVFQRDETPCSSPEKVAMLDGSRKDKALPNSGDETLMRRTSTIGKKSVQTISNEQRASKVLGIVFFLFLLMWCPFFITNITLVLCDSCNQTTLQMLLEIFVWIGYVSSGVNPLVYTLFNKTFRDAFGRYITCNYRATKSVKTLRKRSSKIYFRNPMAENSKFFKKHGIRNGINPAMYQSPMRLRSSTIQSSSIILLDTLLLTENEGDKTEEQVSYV
T3 sequence (P23219 whole entry): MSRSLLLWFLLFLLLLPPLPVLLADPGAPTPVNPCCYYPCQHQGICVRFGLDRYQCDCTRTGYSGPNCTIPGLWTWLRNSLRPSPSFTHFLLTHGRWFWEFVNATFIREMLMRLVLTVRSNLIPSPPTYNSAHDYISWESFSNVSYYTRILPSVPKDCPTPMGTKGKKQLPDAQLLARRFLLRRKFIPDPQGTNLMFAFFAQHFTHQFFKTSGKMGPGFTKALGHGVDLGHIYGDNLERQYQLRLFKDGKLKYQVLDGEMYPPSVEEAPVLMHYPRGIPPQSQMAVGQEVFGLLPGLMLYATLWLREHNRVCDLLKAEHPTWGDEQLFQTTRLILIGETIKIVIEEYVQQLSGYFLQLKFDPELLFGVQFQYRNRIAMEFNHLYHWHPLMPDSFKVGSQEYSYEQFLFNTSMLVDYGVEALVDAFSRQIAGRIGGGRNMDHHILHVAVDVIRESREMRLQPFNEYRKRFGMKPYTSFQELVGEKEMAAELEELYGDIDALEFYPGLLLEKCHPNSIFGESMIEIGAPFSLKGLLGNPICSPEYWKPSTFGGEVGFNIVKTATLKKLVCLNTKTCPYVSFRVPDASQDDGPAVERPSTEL
Sodium-dependent dopamine transporter, sequence (Q01959 whole entry): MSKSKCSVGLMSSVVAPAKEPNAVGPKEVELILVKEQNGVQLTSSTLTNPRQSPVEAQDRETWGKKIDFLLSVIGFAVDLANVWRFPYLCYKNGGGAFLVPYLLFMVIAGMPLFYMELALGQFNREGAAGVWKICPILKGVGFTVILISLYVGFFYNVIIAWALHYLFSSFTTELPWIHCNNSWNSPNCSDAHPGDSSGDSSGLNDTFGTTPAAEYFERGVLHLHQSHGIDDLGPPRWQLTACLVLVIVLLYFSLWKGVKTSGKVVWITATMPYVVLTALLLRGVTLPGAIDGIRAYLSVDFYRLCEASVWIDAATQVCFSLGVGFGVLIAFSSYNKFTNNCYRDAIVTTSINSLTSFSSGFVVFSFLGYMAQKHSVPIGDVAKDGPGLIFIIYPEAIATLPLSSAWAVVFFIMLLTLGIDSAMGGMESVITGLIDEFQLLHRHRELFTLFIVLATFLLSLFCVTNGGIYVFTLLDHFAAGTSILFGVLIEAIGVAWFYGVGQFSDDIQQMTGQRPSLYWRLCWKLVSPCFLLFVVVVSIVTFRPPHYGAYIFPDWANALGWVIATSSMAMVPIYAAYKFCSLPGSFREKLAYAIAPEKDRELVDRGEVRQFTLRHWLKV

| SMILES | AC50 [1] | AC50 (Progesterone receptor) | AC50 (D(1A) dopamine receptor) | AC50 [2] | AC50 (Histamine H3 receptor) | AC50 [3] | AC50 [4] | AC50 [5] | AC50 [6] | AC50 [7] | AC50 (Prothrombin) |
| --- | --- | --- | --- | --- | --- | --- | --- | --- | --- | --- | --- |
| CC(c1ccc(Cl)c(Cl)c1)N1N=C(N)CC1=O (stereo not given) [MUZOLIMINE] | > 30 µM | > 30 µM | > 30 µM | > 30 µM | > 30 µM | > 30 µM | 13.3 µM | > 30 µM | > 30 µM | > 30 µM | > 30 µM |
| CCN(CC)CCOC(=O)C(Cc1cccc2ccccc12)CC1CCCO1 (stereo not given) [NAFRONYL] | > 30 µM | > 30 µM | 23.5 µM | > 30 µM | > 30 µM | > 30 µM | > 30 µM | > 30 µM | > 30 µM | > 30 µM | > 30 µM |
| c1ccc2c(CC3=NCCN3)cccc2c1 [NAPHAZOLINE] | 0.114 µM | > 30 µM | > 30 µM | > 30 µM | > 30 µM | 0.0014 µM | > 30 µM | > 30 µM | > 30 µM | > 30 µM | > 30 µM |
| CNC(=O)Oc1ccc2c(c1)[C@]1(C)CCN(C)[C@@H]1N2C [PHYSOSTIGMINE] | > 30 µM | > 30 µM | > 30 µM | > 10 µM | > 30 µM | > 30 µM | 4.3 µM | > 30 µM | > 30 µM | > 30 µM | > 30 µM |
| C1CNCCN1 [PIPERAZINE] | > 30 µM | > 30 µM | > 30 µM | > 30 µM | > 30 µM | > 30 µM | > 30 µM | > 30 µM | > 30 µM | > 30 µM | > 30 µM |
| c1cc(CN2CCCNCCNCCCNCC2)ccc1CN1CCCNCCNCCCNCC1 [PLERIXAFOR] | > 30 µM | > 30 µM | > 30 µM | > 30 µM | 0.307 µM | > 30 µM | > 30 µM | > 30 µM | > 30 µM | > 30 µM | > 30 µM |
| COCCCOc1ccnc(C[S+]([O-])c2nc3ccccc3[nH]2)c1C (stereo not given) [RABEPRAZOLE] | 12.8 µM | > 30 µM | > 30 µM | 0.71 µM | > 30 µM | > 30 µM | 25.4 µM | > 30 µM | > 30 µM | > 30 µM | > 30 µM |
| O=C(NC(Cc1cc(=O)[nH]c2ccccc12)C(=O)O)c1ccc(Cl)cc1 (stereo not given) [REBAMIPIDE] | > 30 µM | > 30 µM | > 30 µM | > 30 µM | > 30 µM | > 30 µM | > 30 µM | > 30 µM | > 30 µM | > 30 µM | > 30 µM |
| CO[C@H]1/C=C/O[C@@]2(C)Oc3c(C)c(O)c4c(O)c(cc(O)c4c3C2=O)NC(=O)/C(C)=C\C=C\[C@H](C)[C@H](O)[C@@H](C)[C@@H](O)[C@@H](C)[C@H](OC(C)=O)[C@@H]1C [RIFAMYCIN] | > 30 µM | > 30 µM | > 30 µM | > 30 µM | > 30 µM | 8.13 µM | 28.7 µM | > 30 µM | > 30 µM | > 30 µM | > 30 µM |
| CCCC(=O)O[C@H]1[C@H](C)O[C@@H](O[C@H]2[C@H](N(C)C)[C@@H](O)[C@H](O[C@H]3[C@@H](CC=O)C[C@@H](C)[C@@H](O)/C=C/C=C/C[C@@H](C)OC(=O)C[C@@H](O)[C@@H]3OC)O[C@@H]2C)C[C@@]1(C)OC(=O)CC [ROKITAMYCIN] | > 30 µM | > 30 µM | > 30 µM | 8.78 µM | > 30 µM | > 30 µM | > 30 µM | > 30 µM | > 30 µM | > 30 µM | > 30 µM |
| CCCCCCCCCCCCCCCCCC(=O)NCCCC[C@H](NC(=O)CC[C@@H](NC(=O)[C@H](C)NC(=O)[C@@H](C)O[C@H]1[C@H](O)[C@@H](CO)OC(O)[C@@H]1NC(C)=O)C(N)=O)C(=O)O (stereo not given in full) [ROMURTIDE] | 6.21 µM | 2.94 µM | > 30 µM | 5.94 µM | > 30 µM | > 30 µM | > 30 µM | > 30 µM | > 30 µM | > 30 µM | > 30 µM |
| O=C(Oc1ccccc1C(=O)O)c1ccccc1O [SALSALATE] | > 30 µM | > 30 µM | > 30 µM | > 30 µM | > 30 µM | > 30 µM | > 30 µM | > 30 µM | > 30 µM | > 30 µM | > 30 µM |
| COc1cc([C@@H]2c3cc4c(cc3[C@@H](O[C@@H]3O[C@@H]5CO[C@@H](c6cccs6)O[C@H]5[C@H](O)[C@H]3O)[C@H]3COC(=O)[C@H]23)OCO4)cc(OC)c1O [TENIPOSIDE] | > 30 µM | > 30 µM | > 30 µM | > 30 µM | > 30 µM | > 30 µM | > 30 µM | > 30 µM | > 30 µM | > 30 µM | > 30 µM |
| c1ccc2[nH]c(-c3cscn3)nc2c1 [THIABENDAZOLE] | > 30 µM | > 30 µM | > 30 µM | > 30 µM | > 30 µM | > 30 µM | > 30 µM | > 30 µM | > 30 µM | > 30 µM | > 30 µM |
| CCSc1ccc2c(c1)N(CCCN1CCN(C)CC1)c1ccccc1S2 [THIETHYLPERAZINE] | 0.449 µM | 24.4 µM | 0.0079 µM | > 0.3 µM | 13 µM | 24.7 µM | 26.5 µM | 3.87 µM | > 30 µM | > 30 µM | > 30 µM |
